Results published in PMC8151276, “An Integrated Approach toward NanoBRET Tracers for Analysis of GPCR Ligand Engagement” (Molecules, 2021).

Legend:
[1] = molecular target: T1, HTR1F (Homo sapiens, UniProt P30939); test: NanoBRET screen HiBiT-HTR1F in HEK293; assay type: binding
T1 construct: purchased Promega (in-house HiBiT-GPCR construct library, NanoBRET)
T1 sequence (P30939 1-366): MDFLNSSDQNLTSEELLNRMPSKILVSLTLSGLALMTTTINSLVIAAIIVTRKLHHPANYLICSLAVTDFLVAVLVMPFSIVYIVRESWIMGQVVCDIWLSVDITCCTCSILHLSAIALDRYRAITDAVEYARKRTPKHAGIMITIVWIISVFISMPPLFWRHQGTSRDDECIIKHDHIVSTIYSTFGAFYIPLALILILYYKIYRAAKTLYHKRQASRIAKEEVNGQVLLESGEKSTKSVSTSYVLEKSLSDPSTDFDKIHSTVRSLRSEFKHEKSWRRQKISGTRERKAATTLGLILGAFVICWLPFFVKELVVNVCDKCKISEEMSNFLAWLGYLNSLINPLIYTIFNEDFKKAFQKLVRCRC
Protocol: (§1) Each tracer candidate was screened across the entire library of HiBiT-GPCR constructs using NanoBRET as the detection modality. As depicted in Figure 4A, the specificity of interactions was evaluated through decrease in BRET due to competitive displacement of a bound tracer by excess parental compound. Each tracer was analyzed for binding to each HiBiT-GPCR fusion in the absence and in the presence of competing parental compound. Briefly, HEK293 cells were transfected with HiBiT-GPCR constructs diluted into promoterless DNA to reduce expression and maximize translocation to the cell surface. Each tracer candidate was then screened at concentrations of 1 μM and 0.1 μM across cells expressing these fusions. Cells were treated for 1.5 h with tracer either alone or in the presence of 20 μM competing parental compound (i.e., control). BRET was measured upon addition of purified LgBiT and subsequent complementation with HiBiT genetically fused to a GPCR. The specificity of interactions was assessed through a decrease in BRET signal due to competitive displacement of the bound tracer. To further gauge the robustness of these interactions, the fold response over the control (i.e., BRETtracer/BRETcontrol) was calculated. We chose a 1.5-fold response, which translates to ≥7-fold signal over noise as the minimal threshold required to score an interaction as positive.
(§2) HiBiT-GPCR DNA constructs were diluted in 10 mM Tris pH 8 to a final concentration of 0.01 μg/μL, arrayed in 96-well plates and stored at −20 °C. For transfection, HEK293 cells were suspended in Opti-MEM (without phenol red) supplemented with 2% fetal bovine serum (Seradigm) and 100 units/mL penicillin–streptomycin (Gibco) at a final concentration of 220,000 cells/mL and dispensed into white 96-well plates at 90 μL/well. Subsequent transfections and screens were carried using an Agilent Bravo Automated Liquid Handling Platform. First, the 96-well HiBiT DNA arrays were diluted 25-fold in Opti-MEM (without serum or phenol red) to a final concentration of 0.0004 μg/μL and 20 μL of the diluted DNAs were transferred into new 96-well plates. Next, promoterless carrier DNA (1 μg/μL) was diluted 25-fold (0.04 μg/μL) and then dispensed into the diluted arrays at 20 μL/well. Following brief mixing, Viafect transfection reagent (Promega) diluted 16-fold into Opti-MEM was dispensed into the plates at 40 μL/well. After mixing by pipetting, plates were incubated for 10 min on the pipetting station deck. The DNA-transfection reagent complexes were then added to plates containing cells. To facilitate the screen, 10 μL of DNA-transfection reagent complexes were added in duplicates to the top 4 and bottom 4 rows, resulting in two identical 48-well arrays per plate. Plates with transfected cells were incubated for 18–20 h at 37 °C/5% CO2. A screen of each tracer across the entire library using two different concentrations requires duplicate plates of transfected cells. Depending on the number of tracers being screened, transfections can be scaled up using the same ratios. The next day, for each tracer, four 20× screening solutions in tracer dilution buffer (Promega) were prepared: two duplicates at final concentration of 20 μM and two duplicates at a final concentration of 2 μM. […] The four resulting solutions were diluted 4-fold in Opti-MEM without serum or phenol red to generate 5× solutions (5 µM and 0.5 µM tracer +/− 100 μM competing compound). To screen the library, a BioTek MultiFlo FX liquid dispenser was used to dispense 22.5 µL of tracer solution to the top 4 rows and 22.5 µL tracer + competing compound solution to the 4 bottom rows. Plates were briefly mixed on an orbital shaker and incubated for 1.5 h at room temperature. […] Plates were briefly mixed on an orbital shaker and incubated for 15 min to allow complementation.

[2] = molecular target: T2, LGR5 (Homo sapiens, UniProt O75473); test: NanoBRET screen HiBiT-LGR5 in HEK293; assay type: binding
T2 construct: purchased Promega (in-house HiBiT-GPCR construct library, NanoBRET)
T2 sequence (O75473 22-907): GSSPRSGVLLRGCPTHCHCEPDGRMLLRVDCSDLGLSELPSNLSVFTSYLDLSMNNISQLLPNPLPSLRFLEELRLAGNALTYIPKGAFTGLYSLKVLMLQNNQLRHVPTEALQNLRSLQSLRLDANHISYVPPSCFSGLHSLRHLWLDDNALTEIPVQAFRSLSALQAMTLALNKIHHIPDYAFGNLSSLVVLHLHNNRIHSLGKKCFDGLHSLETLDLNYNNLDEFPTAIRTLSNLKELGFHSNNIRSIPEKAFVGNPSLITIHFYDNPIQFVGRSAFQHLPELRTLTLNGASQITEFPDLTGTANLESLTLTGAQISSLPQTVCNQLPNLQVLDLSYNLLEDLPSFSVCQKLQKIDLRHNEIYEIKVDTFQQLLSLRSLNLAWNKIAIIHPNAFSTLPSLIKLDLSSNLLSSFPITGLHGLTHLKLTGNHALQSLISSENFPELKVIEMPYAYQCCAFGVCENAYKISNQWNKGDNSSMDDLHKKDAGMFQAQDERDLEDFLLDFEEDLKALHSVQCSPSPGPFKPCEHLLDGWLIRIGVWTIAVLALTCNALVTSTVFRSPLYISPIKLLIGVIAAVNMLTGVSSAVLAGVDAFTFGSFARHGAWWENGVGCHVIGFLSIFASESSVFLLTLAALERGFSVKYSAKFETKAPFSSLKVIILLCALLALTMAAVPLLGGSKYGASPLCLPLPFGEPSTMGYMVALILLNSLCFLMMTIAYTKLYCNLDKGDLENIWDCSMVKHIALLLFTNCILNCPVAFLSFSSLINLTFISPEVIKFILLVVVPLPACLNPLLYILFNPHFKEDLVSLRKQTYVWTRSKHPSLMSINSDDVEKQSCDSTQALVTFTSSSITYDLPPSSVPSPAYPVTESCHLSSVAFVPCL
Protocol: as §1, §2

[3] = tracer at 0.1μM, listed as amitriptyline-b-2-NB590

| Compound | NanoBRET Fold Response ([1]; HTR1F, tracer 0.1μM) | NanoBRET Fold Response ([1]; HTR1F, tracer 1μM) | NanoBRET Fold Response ([2]; LGR5, tracer 0.1μM) | NanoBRET Fold Response ([2]; LGR5, tracer 1μM) | also measured |
| --- | --- | --- | --- | --- | --- |
| O=C(CCc1ccc2n1[B-](F)(F)[N+]1=C(c3ccc[nH]3)C=CC1=C2)NCCOCCOCCNC(=O)OCCOCCN1CCN(C2=Nc3ccccc3Sc3ccccc32)CC1 [Quetiapine-a-2-NB590] | 1.01 | 0.95 | 1.02 | 0.78 | – |
| CN1CCN(C2=Nc3cc(Cl)ccc3Nc3ccc(CNC(=O)CCOCCOCCOCCOCCNC(=O)CCc4ccc5n4[B-](F)(F)[N+]4=C(c6ccc[nH]6)C=CC4=C5)cc32)CC1 [Clozapine-b-2-NB590] | – | – | – | – | NanoBRET Fold Response ([1]; HTR1F, 0.1μM tracer): 1.00; NanoBRET Fold Response ([1]; HTR1F, 1μM tracer): 1.28; NanoBRET Fold Response ([2]; LGR5, 0.1μM tracer): 0.95 |
| CC(C)N(CC[C@H](c1ccccc1)c1cc(CCNC(=O)CCOCCOCCOCCOCCNC(=O)CCc2ccc3n2[B-](F)(F)[N+]2=C(c4ccc[nH]4)C=CC2=C3)ccc1O)C(C)C [Tolterodine-2-NB590] | 0.90 | 1.13 | 0.91 | 0.71 | – |
| CN(C)CCC=C1c2ccccc2CCc2ccc(C(=O)NCCNC(=O)CCOCCOCCOCCOCCNC(=O)CCc3ccc4n3[B-](F)(F)[N+]3=C(c5ccc[nH]5)C=CC3=C4)cc21 [Amitriptyline-a-2-NB590] | – | – | – | – | NanoBRET Fold Response ([1]; tracer at 0.1μM): 0.97; NanoBRET Fold Response ([1]; tracer at 1μM): 1.02; NanoBRET Fold Response ([2]; tracer at 0.1μM): 0.91; NanoBRET Fold Response ([2]; tracer at 1μM): 1.02 |
| Cc1cc2c(s1)Nc1ccccc1N=C2N1CCN(CCCNC(=O)CCOCCOCCOCCOCCNC(=O)CCc2ccc3n2[B-](F)(F)[N+]2=C(c4ccc[nH]4)C=CC2=C3)CC1 [Olanzapine-a-2-NB590] | 1.01 | 1.21 | 0.91 | 0.81 | – |
| N#CN=C(NCCCOc1cccc(CN2CCCCC2)c1)NCCNC(=O)CCOCCOCCOCCOCCNC(=O)CCc1ccc2n1[B-](F)(F)[N+]1=C(c3ccc[nH]3)C=CC1=C2 [Aminopotentidine-2-NB590] | 1.07 | 1.05 | 0.79 | 1.15 | – |
| Cc1nc2n(c(=O)c1CCN1CCC(c3noc4cc(F)ccc34)CC1)CCCC2OC(=O)NCCOCCOCCOCCOCCNC(=O)CCc1ccc2n1[B-](F)(F)[N+]1=C(c3ccc[nH]3)C=CC1=C2 (stereo not drawn) [Risperidone-2-NB590] | 0.98 | 1.07 | 1.07 | 1.18 | – |
| CN(C)CCC=C1c2ccccc2CCc2ccc(C(=O)NCCNC(=O)CCOCCOCCOCCOCCNC(=O)CCc3ccc4n3[B-](F)(F)[N+]3=C(c5ccc[nH]5)C=CC3=C4)cc21 [Amitriptyline-b-2-NB590] | – | – | – | – | NanoBRET Fold Response [1, 3]: 1.43; NanoBRET Fold Response [2, 3]: 1.19; NanoBRET Fold Response ([2]; tracer at 1μM, listed as amitriptyline-b-2-NB590): 1.19 |
